Holding throughout (assay type): cell-based
Assay [1] deals with T1, hKV7.1/KCNE1 (KV7.1) (Homo sapiens, UniProt P51787).
T1 construct: gene KCNQ1; with KCNE1
The assay is described as follows: two-electrode voltage clamp in Xenopus oocytes, V50 shift at […]. In general terms: Two-electrode voltage clamp holds a large cell at a set potential and records current.

The target of assay [2] is T1, hKV7.1/KCNE1 (KV7.1). In words: two-electrode voltage clamp in Xenopus oocytes, V50 shift; mutagenesis (R228Q abolishes V50 shift); also active on KV7.[…] alone (EC50 […]).
In assay [3] the target is T1, hKV7.1/KCNE1 (KV7.1). In words: two-electrode voltage clamp in Xenopus oocytes, V50 shift.
Assay [4] addresses T1, hKV7.1/KCNE1 (KV7.1). In words: two-electrode voltage clamp in Xenopus oocytes, V50 shift (current amplitude EC50 […]); site mutagenesis supported by MD.
For assay [5], the target named is T1, hKV7.1/KCNE1 (KV7.1). The assay is described as follows: two-electrode voltage clamp in Xenopus oocytes, V50 shift at […] (moderate effect).

The structures appear in SMILES notation.

T1 sequence (P51787 whole entry): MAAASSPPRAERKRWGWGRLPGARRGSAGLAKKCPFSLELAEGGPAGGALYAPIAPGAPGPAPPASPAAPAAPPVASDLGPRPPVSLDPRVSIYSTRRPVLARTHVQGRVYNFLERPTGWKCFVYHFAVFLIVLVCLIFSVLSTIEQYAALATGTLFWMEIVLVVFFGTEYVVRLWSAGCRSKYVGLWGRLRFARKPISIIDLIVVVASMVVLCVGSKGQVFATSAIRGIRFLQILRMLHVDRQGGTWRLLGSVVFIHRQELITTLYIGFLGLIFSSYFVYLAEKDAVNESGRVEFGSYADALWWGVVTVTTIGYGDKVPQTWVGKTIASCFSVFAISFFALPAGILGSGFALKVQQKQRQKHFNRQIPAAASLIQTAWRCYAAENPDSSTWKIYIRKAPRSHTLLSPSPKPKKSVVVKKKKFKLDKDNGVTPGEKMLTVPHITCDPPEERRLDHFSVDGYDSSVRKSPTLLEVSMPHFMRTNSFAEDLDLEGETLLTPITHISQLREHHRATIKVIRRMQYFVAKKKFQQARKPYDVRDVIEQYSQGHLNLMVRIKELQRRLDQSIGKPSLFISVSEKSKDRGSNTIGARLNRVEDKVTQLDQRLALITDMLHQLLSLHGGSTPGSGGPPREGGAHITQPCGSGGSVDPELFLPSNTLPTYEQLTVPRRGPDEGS

For `CCCCC/C=C\C/C=C\C/C=C\C/C=C\CCCC(=O)N[C@H](CO)C(=O)O` [ARA-D-S], the “ΔV50 (mV)” value on hKV7.1/KCNE1 (KV7.1) [1] is listed as −29.0 mV. With `CCCCC/C=C\C/C=C\C/C=C\C/C=C\CCCC(=O)N[C@@H](CO)C(=O)O` [ARA-S], the EC50 – broadly, the concentration at which the effect is half-maximal – at hKV7.1/KCNE1 (KV7.1) [2] came out at 9 µM.

As to `CC/C=C\C/C=C\C/C=C\C/C=C\C/C=C\C/C=C\CCC(=O)NC(CO)C(=O)O` (stereo not shown) [DOC-S], the EC50 on hKV7.1/KCNE1 (KV7.1) [3] turned out to be 5 µM.

For `CCCCC/C=C\C/C=C\CCCCCCCC(=O)NC(CO)C(=O)O` (stereo not shown) [LIN-S], the EC50 at hKV7.1/KCNE1 (KV7.1) [4] amounted to 12 µM. For `CCCCC/C=C\C/C=C\C/C=C\C/C=C\CCCC(=O)NCCCC(=O)O` [NAGABA], at hKV7.1/KCNE1 (KV7.1) [5], the “ΔV50 (mV)” value is recorded as −6.7 mV. For `CCCCC/C=C\C/C=C\C/C=C\C/C=C\CCCC(=O)NCC(=O)O` [NAGly], at hKV7.1/KCNE1 (KV7.1) [1], the “ΔV50 (mV)” value is −25.5 mV. The same measure, in the same setting: with `CCCCC/C=C\C/C=C\C/C=C\C/C=C\CCCC(=O)N[C@@H](C)C(=O)O` [NALA] the figure was −22.2 mV.

Source of the values: publication PMC9958262, “Endocannabinoids enhance hKV7.1/KCNE1 channel function and shorten the cardiac action potential and QT interval” (eBioMedicine, 2023).
